For assay [1], the system named is TLR7. Kind of assay: In vivo mouse TLR7 PD model (gardiquimod challenge, plasma IL-6 and IFN-alpha by ELISA). Conditions: oral. Set-up: species or system C57BL/6 mice. As to the method: In Vivo Mouse TLR7 PD Model:
Adult male C57BL/6 mice were used for the experiments. Mice (7 to 10 per group) were randomized into different treatment groups based on body weight. Mice from the respective treatment groups were administered orally with vehicle or test compound. Thirty min after the oral administration of vehicle or test compound, mice were challenged with intraperitoneal injection of gardiquimod for TLR7 PD model. Ninety minutes after gardiquimod injection, mice were bled under isoflurane anaesthesia and plasma IL-6 and IFN-alpha levels were estimated by using commercially available ELISA kit (BD Biosciences, PBL Life Sciences). At the end of experiment, mean cytokine data was plotted and one way ANOVA with Dunnett's test was performed to calculate the significance of test compound treated group vs. vehicle control group. Percent inhibition of cytokine induction was calculated for test compound treated group vs vehicle control group.

The target in assay [2] is T1, human TLR8 (Homo sapiens, UniProt Q9NR97).
T1 construct: host or cells: HEK-Blue cells
T1 sequence (Q9NR97 27-1041): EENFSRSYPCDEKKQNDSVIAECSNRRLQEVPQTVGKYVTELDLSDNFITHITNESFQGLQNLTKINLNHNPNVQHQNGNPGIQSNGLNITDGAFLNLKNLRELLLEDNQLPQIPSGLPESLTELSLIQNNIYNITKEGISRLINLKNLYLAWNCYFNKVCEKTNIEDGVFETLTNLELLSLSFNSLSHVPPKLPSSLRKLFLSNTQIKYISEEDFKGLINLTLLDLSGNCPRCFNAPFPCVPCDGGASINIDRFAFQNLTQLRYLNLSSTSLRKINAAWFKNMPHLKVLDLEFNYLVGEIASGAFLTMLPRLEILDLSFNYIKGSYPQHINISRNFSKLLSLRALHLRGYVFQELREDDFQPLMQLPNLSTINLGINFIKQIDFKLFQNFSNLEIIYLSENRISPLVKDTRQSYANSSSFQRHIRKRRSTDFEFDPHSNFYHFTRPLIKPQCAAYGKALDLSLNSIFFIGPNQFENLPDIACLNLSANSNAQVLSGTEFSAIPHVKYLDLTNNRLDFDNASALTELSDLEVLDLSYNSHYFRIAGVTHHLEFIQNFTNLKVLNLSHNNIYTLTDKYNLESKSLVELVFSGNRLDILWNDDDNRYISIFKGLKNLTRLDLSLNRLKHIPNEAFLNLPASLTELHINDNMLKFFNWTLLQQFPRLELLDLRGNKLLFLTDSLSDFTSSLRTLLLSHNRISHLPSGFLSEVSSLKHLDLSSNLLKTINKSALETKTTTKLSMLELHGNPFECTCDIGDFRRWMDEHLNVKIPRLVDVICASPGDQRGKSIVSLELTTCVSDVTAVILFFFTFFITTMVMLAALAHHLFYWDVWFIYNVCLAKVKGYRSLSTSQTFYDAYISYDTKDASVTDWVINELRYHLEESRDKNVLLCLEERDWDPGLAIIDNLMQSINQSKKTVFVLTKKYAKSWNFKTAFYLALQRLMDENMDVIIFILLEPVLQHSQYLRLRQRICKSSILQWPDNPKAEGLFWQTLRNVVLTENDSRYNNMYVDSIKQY
The assay is described as follows: TLR8 inhibition reporter assay (HEK-Blue cells, SEAP reporter, R848 stimulation). Particulars: HEK-Blue cells overexpressing human TLR8, SEAP reporter, R848 15.9 μM; read-out: TLR8 IC50. It is filed as cell-based. A digest of the protocol:
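HEK-Blue cells overexpressing human TLR7, TLR8 or TLR9 carry a SEAP reporter driven by NF-κB/AP-1 sites. Compounds (0.05 nM–50 μM) were preincubated 30 min at room temperature, then cells were stimulated with gardiquimod 7.5 μM (TLR7), R848 15.9 μM (TLR8) or ODN2006 5 nM (TLR9) for 22 h at 37 °C.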

As for `COc1cc(-c2[nH]c3sc(C4CCC(NC5COC5)CC4)nc3c2C(C)C)cn2ncnc12` (single isomer, unassigned) [Example 65, N-(4-(6-isopropyl-5-(8-methoxy-[1,2,4]triazolo[1,5-a]pyridin-6-yl)-4H-pyrrolo[3,2-d]thiazol-2-yl)cyclohexyl)oxetan-3-amine], the “% inhibition of IFN-alpha” value in assay [1] (dose 0.001 mg/kg) turned out to be 50%; in assay [1] (dose 0.005 mg/kg) it was 63%; in assay [1] (dose 0.025 mg/kg), 97%; in assay [1] (dose 0.050 mg/kg) it was 99%. Also, the “% inhibition of IL6” value in assay [1] (dose 0.001 mg/kg) amounted to 21%; in assay [1] (dose 0.005 mg/kg), 42%; in assay [1] (dose 0.025 mg/kg), 78%; in assay [1] (dose 0.050 mg/kg), 94%. For the same compound, the half-maximal inhibitory concentration (IC50) in assay [2] turned out to be 1.37 nM.

(Values after patent publication US20230139171A1 (SITA Information Networking Computing UK Limited, priority 2019, published 2023).)
